Source: patent US6541463B1, “Inhibitors of type 5 and type 3 17β-hydroxysteroid dehydrogenase and methods for their use” (Endorecherche, Inc., priority 1998, dated 2003)
Where two headings read alike, the source gives them in different places.

Tests used:
[1] = biological target: T1, human type 5 17β-hydroxysteroid dehydrogenase (Homo sapiens, UniProt P42330); assay: Reversibility of human type 5 17β-HSD inhibitory activity (preincubation, wash); assay type: cell-based
T1 construct: screen again a human placental λgt11 cDNA to get the full length cDNA clone; expressed in transfected cells; host or cells: human embryonal kidney 293 cells (pCMV / pCMV-neo vector)
T1 sequence (P42330 1-323): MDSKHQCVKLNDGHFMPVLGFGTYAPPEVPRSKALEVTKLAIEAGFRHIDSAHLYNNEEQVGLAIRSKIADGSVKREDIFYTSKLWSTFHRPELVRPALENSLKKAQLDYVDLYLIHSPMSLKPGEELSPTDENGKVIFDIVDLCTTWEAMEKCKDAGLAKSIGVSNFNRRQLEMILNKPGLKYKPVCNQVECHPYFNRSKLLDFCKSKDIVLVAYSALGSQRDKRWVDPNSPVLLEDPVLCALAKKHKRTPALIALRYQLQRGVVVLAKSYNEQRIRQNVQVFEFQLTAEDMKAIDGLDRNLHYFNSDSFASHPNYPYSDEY
Description: In column 3, the reversibility of the inhibition of type 5 17β-hydroxysteroid dehydrogenase activity expressed in percentage of control is reported. The manner in which the reversibility is determined is described in “Efficacy of Preferred Inhibitors: V. Reversibility of Human Type 5 17β-HSD Inhibitory Activity”. Lower number is desirable. Blank means that a determination was not done.
Determination of activity was performed as described (Luu-The et al., Mol. Endocrionol. 4: 268-275, 1990, Lachance et al., J. Biol. Chem. 265: 20469-20475, 1990; Luu-The et al., DNA & Cell Biol. 14: 511-518, 1995). Briefly, 0.1 μM of the indicated ^14C-labeled substrate (Dupont Inc. (Canada), namely, DHEA, 4-androstene-3,17-dione (Δ4), in absence or presence of increasing concentration of preferred inhibitor of the invention, was added to freshly changed culture medium in a 6-well culture plate. After incubation for 1 h, the steroids were extracted twice with 2 ml of ether. The organic phase were pooled and evaporated to dryness. The steroids were solubilized in 50 μl of dichloromethane, applied to Silica gel 60 thin layer chromatography (TLC) plate (Merck, Darmstad, Germany) then separated by migration in the toluene-acetone (4:1) solvent system. […] Transfection could be also performed with HeLa, SW-13, 293, COS-1 cells, the preferred cell line is 293 cells.
The reversibility assay was performed as described above for the standard type 5 17β-HSD enzymatic assay, except that before adding the ^14C-labeled substrate, the cells were preincubated with 0.3 μM of the indicated inhibitor for 1 h, (or the indicated time interval), followed by two washes with phosphate saline buffer (PBS).

[2] = In vivo assay of oral bioavailability (plasma AUC 0-7 h by LCMS/MS); set-up: species or system male Sprague Dawley rats; details: male, Sprague-Dawley [Crl:CD(SD)Br]
Description: In column 1, the oral bioavailability of preferred type 5 inhibitors, expressed in ng/mL.h, was determined as described below in “Other Tests, A-In Vivo Assays of Bioavailability of Human Type 5 17β-HSD Inhibitors”. Higher number are desirable. ND means that a determination was not done.
The measurements at various time intervals were for values greater than or equal to 1.0 ng/mL and less than or equal to 50 ng/mL.
Male Sprague-Dawley rats [Crl:CD(SD)Br] weighing 275-350 g were obtained from Charles-River Canada Inc. and housed 2 per cage during the acclimation period and individually during the study period. The animals were maintained under a regimen of 12 hours light: 12 hours dark (lights on at 08:00). Animals received certified Rodent feed (Lab Diet #5002, pellets) and tap water ad libitum. Rats were fasted (access to water only) starting on the evening prior to dosing.
Each compound to be tested was administered to three animals as a suspension in 0.4% methylcellulose by oral gavage at a dose of 0.5 mg/rat (1.0 ml/rat). Four to eight new compounds were tested each day and one group of animals received megestrol acetate (MGA) under the same conditions on each dosing day as a reference. […] Blood samples were immediately transferred into a refrigerated 0.75 ml Microtainer containing EDTA and kept in an ice-water bath until centrifugation at 3000 rpm for 10 minutes. Plasma separation was performed rapidly (less than 50 minutes) after blood collection. One aliquot of 0.25 ml of plasma was then transferred into a borosilicate tube (13×100) and was rapidly frozen on dry-ice. Plasma samples were kept at −80° C. until measurement of plasma concentration of the inhibitor(s) by LCMS/MS.
Aliquots of rat plasma (0.250 mL) were transferred to 13×100 mm borosilicate tubes. Water (1.0 mL) and internal standard solution (0.1 mL) were added to each sample and vortexed for 2 min. A mixture of N-butyl chloride and acetone (v:v, 7:3) (3 mL) was added to each sample and vortexed for 2 min. This step was repeated and the combined organic phases were evaporated to dryness under nitrogen in a Turbo Vap evaporator at 35° C. The residue was reconstituted with 1 mL of methanol and evaporated in a Turbo Vap evaporator at 35° C. The final extract was reconstituted into 0.1 mL of methanol/water (v:v, 75:25) and then transferred into a conical vial for injection into the mass spectrometer.
The assay procedure was performed by analyzing, in duplicate, rat plasma samples spiked at six different Type 5 inhibitor concentrations (1, 2, 5, 10, 20 and 50 ng/mL). The lower limit of quantitation (LOQ) was established at 1.0 ng/mL. Values lower than 1.0 ng/mL were expressed as below limit of quantification (BLQ). […]

[3] = test system: ZR-75-1 cells; assay: Antiestrogenic activity: inhibition of E2-induced proliferation of ZR-75-1 cells; assay type: cell-based, human; set-up: ZR-75-1 Activity, E2 / ZR-75-1 Activity E2 E^−6: unit not given here; details: for ZR-75-1 Activity E2 E^−6: with E2, E^−6
Description: The manner in which the inhibition is determined is described in “Other Tests; C-Estrogenic/Antiestrogenic Activity”. Lower numbers are desirable. ND means that a determination was not done.
Estrogenic/antiestrogenic activity of some preferred compounds has been measured using the […] human breast cancer cell line as described in more detail below.
All media and medium supplments were purchased from Sigma. Cells were subcultured weekly by treatment with a pancreatic solution containing EDTA (0.2 g/L). The cell cultures used for the experiments herein describied were between passages 89 and 94.
Cells in their logarithmic growth phase were harvested, briefly centrifuged, and resuspended in RPMI 1640. Cells were then plated in triplicate in LIMBRO 24-well plastic culture plates (2 cm^2/well). Since plating density influences the effect of hormones on ZR-75-1 cell growth, cells were plated at a density of 1×10^4 cells/well. […] Control cultures received the ethanol vehicle only. Cells were then allowed to grow at 37° C. for 10 days with medium changes (of identical composition) every 2 days.
After E2 and/or antiestrogen treatment, cells were harvested by addition of 0.5 ml of a pancreatin solution (Sigma) for 5-10 min at 37° C. before addition of 0.5 mnl of RPMI 1640 containing 5% dextran coated […] bovine serum in order to block enzymatic action. Cell number (0.10 ml aliquot) was determined by measurement of DNA content as previously described (Simard et al., Endocrinology 126: 3223-3231,1990).

[4] = 0.5 mg, Table 4′, oral, rat plasma
[5] = Table 4′, E2-induced proliferation, 3E^−8

SMILES | Reversibility ((%) of control) ([1]; Table 4′) | AUC(0-t) [2, 4] | other results
CCC[C@@H]1CC2C3C=CC4=CC(=O)CC[C@]4(C)C3CC[C@]2(C)C1=O (stereo partly drawn) [EM-1097] | – | – | Reversibility ((%) of control) [1]: 45%; AUC(0-t) ([2]; rat, plasma, po, 0.5 mg/rat): 122 ± 5.7 ng·h/mL; ZR-75-1 Activity, E2 3E^−8 ([3]; with E2, 3E^−8): 0; ZR-75-1 Activity E2 E^−6 [3]: 0
CC1(C)CC[C@@]2(CCC3C4CCc5cc(F)ccc5C4CC[C@@]32C)OC1=O (stereo partly drawn) [EM-1157-CS] | 28 % of control | 40 ± 7 ng·h/mL | –
CC(C)C[C@@H]1CC2C3C=CC4=CC(=O)CC[C@]4(C)C3CC[C@]2(C)C1=O (stereo partly drawn) [EM-1273-CS] | – | – | Reversibility ((%) of control) [1]: 40%; AUC(0-t) ([2]; rat, plasma, po, 0.5 mg/rat): 85 ± 26 ng·h/mL; ZR-75-1 Activity, E2 3E^−8 ([3]; with E2, 3E^−8): 0; ZR-75-1 Activity E2 E^−6 [3]: −30
COc1ccc(CC(=O)O[C@]2(C(C)=O)CCC3C4C=C(C)C5=CC(=O)C=C[C@]5(C)C4CC[C@@]32C)cc1 (stereo partly drawn) [EM-1291] | – | – | Reversibility ((%) of control) [1]: 27%; AUC(0-t) ([2]; rat, plasma, po, 0.5 mg): 94 ± 23 ng·h/mL
CC1(C)CCC2(CCC3C4CCc5cc(OS(C)(=O)=O)ccc5C4CCC32C)OC1=O (stereo not drawn) [EM-1365-CS] | 49 % of control | – | ZR-75-1 Activity, E2 3E^−8 [3, 5]: −17%
COCCOc1cc2c(cc1Cl)C1CCC3(C)C(CCC34CCC(C)(C)C(=O)O4)C1CC2 (stereo not drawn) [EM-1371-CS] | 40 % of control | 64 ± 21 ng·h/mL | ZR-75-1 Activity, E2 3E^−8 [3, 5]: 0%
COc1c(Br)cc2c(c1Br)CCC1C2CCC2(C)C1CCC21CCC(C)(C)C(=O)O1 (stereo not drawn) [EM-1385-CS] | 60 % of control | 301 ± 36 ng·h/mL | –
COc1ccc2c(c1)C(=O)CC1C3CCC4(CCC(C)(C)C(=O)O4)C3(C)CCC21O (stereo not drawn) [EM-1386] | 54 % of control | 5600 ± 789 ng·h/mL | ZR-75-1 Activity, E2 3E^−8 [3, 5]: 0%
CN(C)CCOc1ccc2c(c1)CCC1C2CCC2(C)C1CCC21CCC(C)(C)C(=O)O1 (stereo not drawn) [EM-1389-CS] | 40 % of control | 169 ± 2 ng·h/mL | –
CC1(C)CCC2(CCC3C4CCc5cc(OCCN6CCCCC6)ccc5C4CCC32C)OC1=O [EM-1390-CS, 3-(N-piperidyl-ethyl)-1,3,5(10)-estratrien-17(R)-spiro-2′-(5′,5′-dimethyl-6′-oxo)-tetrahydropyran] | 50 % of control | 401 ± 5 ng·h/mL | –
CC1(C)CCC2(CCC3C4CCc5c(cc(Cl)c(O)c5Cl)C4CCC32C)OC1=O (stereo not drawn) [EM-1391-CS] | 49 % of control | 28 ± 3.4 ng·h/mL | –
CC1(C)CCC2(CCC3C4CCc5c(cc(Cl)c(OS(C)(=O)=O)c5Cl)C4CCC32C)OC1=O (stereo not drawn) [EM-1392-CS] | 38 % of control | 305 ± 49 ng·h/mL | –
COCCOc1cc2c(cc1F)C1CCC3(C)C(CCC34CCC(C)(C)C(=O)O4)C1CC2 (stereo not drawn) [EM-1393-CS] | 38 % of control | – | –
COc1ccc2c(c1)C(=O)CC1C2CC[C@@]2(C)C1CC[C@@]21CCC(C)(C)C(=O)O1 (stereo partly drawn) [EM-1394] | 23 % of control | 1760 ± 69 ng·h/mL | –
COCCOc1cc2c(cc1C#N)C1CC[C@@]3(C)C(CC[C@@]34CCC(C)(C)C(=O)O4)C1CC2 (stereo partly drawn) [EM-1396] | 28 % of control | 196 ± 53 ng·h/mL | ZR-75-1 Activity, E2 3E^−8 [3, 5]: +12%
CC1(C)CC[C@@]2(CCC3C4CCc5cc(C(=O)O)ccc5C4CC[C@@]32C)OC1=O (stereo partly drawn) [EM-1401, 3-Carboxy-1,3,5(10)-estratrien-17(R)-spiro-2′-(5′,5′-dimethyl-6′-oxo)tetrahydropyran] | 31 % of control | 1630 ± 181 ng·h/mL | –
COCCOc1cc2c(cc1C(=O)OC)C1CC[C@@]3(C)C(CC[C@@]34CCC(C)(C)C(=O)O4)C1CC2 (stereo partly drawn) [EM-1402-CS, 2-Carbomethoxy-3-(2″-methoxyethyloxy)-1,3,5(10)-estratrien 17(R)-spiro-2′-(5′,5′-dimethyl-6′-oxo)tetrahydropyran] | 25 % of control | 214 ± 36 ng·h/mL | inhibition at 1 µM ([3]; Homo sapiens, ZR-75-1, 10^−6 M inhibitor, negative number = stimulation reduced, read-out: percentage of inhibition of E2-induced proliferation of ZR-75-1 cells): 61%; ZR-75-1 Activity, E2 3E^−8 [3, 5]: 0%
COCCOc1cc2c(cc1C(=O)O)C1CCC3(C)C(CCC34CCC(C)(C)C(=O)O4)C1CC2 [EM-1405, 2-Carboxy-3-(2″-methoxyethyloxy)-1,3,5(10)-estratrien-17(R)-spiro-2′-(5′,5′-dimethyl-6′-oxo)tetrahydropyran] | 53 % of control | – | –
COc1cc2c(cc1C)C1CCC3(C)C(CCC34CCC(C)(C)C(=O)O4)C1CC2 (stereo not drawn) [EM-1412-CS] | 71 % of control | – | –
COCCOc1cc2c(cc1C(=O)N(C)C)C1CCC3(C)C(CCC34CCC(C)(C)C(=O)O4)C1CC2 (stereo not drawn) [EM-1413-CS] | 37 % of control | – | –
COCCOc1cc2c(cc1C(N)=O)C1CC[C@@]3(C)C(CC[C@@]34CCC(C)(C)C(=O)O4)C1CC2 (stereo partly drawn) [EM-1424, 2-Carbamoyl-3-(2″-methoxyethyloxy)-1,3,5(10)-estratrien 17(R)-spiro-2′-(5′,5′-dimethyl-6′-oxo)tetrahydropyran] | 17 % of control | 368 ± 70 ng·h/mL | ZR-75-1 Activity, E2 3E^−8 [3, 5]: −11%
